Molecules are shown by their SMILES. Entries after “also recorded” stand apart in the source; their conditions may differ.

In one test the target is ELIC-α1GABAAR (Homo sapiens, UniProt P14867). Put plainly: KK200 photolabelling competition, middle-down MS. The format is binding. The note with it: 3 μM KK200, 30 μM competitor. As to the method:
The synthesis of the NS photolabelling reagent KK200 is detailed in previous reports ([W. W. L. Cheng et al., 2018]; [Jiang et al., 2016]). […] The samples were then irradiated in a quartz cuvette for 5 min, using a photoreactor emitting light at >320 nm ([Germann et al., 2021]). Sample preparation for tryptic digestion and analysis by LC–MS was performed as previously described ([Sugasawa et al., 2019]). Peptides were separated on a home-packed PLRP-S (Agilent, Santa Clara, CA, USA) column (10 cm × 75 μm, 300 Å) using a 135-min gradient from 10% to 90% acetonitrile and introduced to an Orbitrap-Elite mass spectrometer (Thermo Fisher Scientific, Waltham, MA, USA; RRID:SCR_020548) at 800 nl·min^−1 with a nanospray source. MS acquisition was set as an MS1 Orbitrap scan (resolution of 60,000) followed by top 20 MS2 Orbitrap scans (resolution of 15,000) using data-dependent acquisition and exclusion of singly charged precursors. Fragmentation was performed using high-energy dissociation with normalized energy of 35%. Analysis of data sets was performed using Xcalibur (Thermo Fisher Scientific, Waltham, MA, USA; RRID: SCR_014593) to manually search for TM1, TM2, TM3 or TM4 tryptic peptides with or without NS photolabelling modifications. Photolabelling efficiency was estimated by generating extracted chromatograms of unlabelled and labelled peptides, determining the area under the curve, and calculating the (area of labelled peptide/(area of unlabelled + area of labelled peptide). MS2 spectra of photolabelled TMD peptides were analysed by manual assignment of fragment ions with and without photolabelling modification.

Another test deals with T1, α1β3 GABAA receptors (Homo sapiens, UniProt P14867+P28472).
T1 construct: expressed in transfected cells; host or cells: Xenopus laevis oocytes, cRNA injected 5:1 (α1:β3)
T1 sequence (P14867 28-456): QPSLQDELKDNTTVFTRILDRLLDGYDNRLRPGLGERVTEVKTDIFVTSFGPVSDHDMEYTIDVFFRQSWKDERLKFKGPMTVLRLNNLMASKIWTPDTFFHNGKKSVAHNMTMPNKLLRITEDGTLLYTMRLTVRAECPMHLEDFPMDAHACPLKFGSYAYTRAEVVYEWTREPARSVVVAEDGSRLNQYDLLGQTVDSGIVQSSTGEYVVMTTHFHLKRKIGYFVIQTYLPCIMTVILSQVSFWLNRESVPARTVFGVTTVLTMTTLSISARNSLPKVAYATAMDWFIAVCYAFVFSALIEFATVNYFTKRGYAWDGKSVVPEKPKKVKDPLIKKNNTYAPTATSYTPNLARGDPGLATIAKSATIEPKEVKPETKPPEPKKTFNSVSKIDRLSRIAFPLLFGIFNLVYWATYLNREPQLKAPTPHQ
T1 sequence (P28472 26-473): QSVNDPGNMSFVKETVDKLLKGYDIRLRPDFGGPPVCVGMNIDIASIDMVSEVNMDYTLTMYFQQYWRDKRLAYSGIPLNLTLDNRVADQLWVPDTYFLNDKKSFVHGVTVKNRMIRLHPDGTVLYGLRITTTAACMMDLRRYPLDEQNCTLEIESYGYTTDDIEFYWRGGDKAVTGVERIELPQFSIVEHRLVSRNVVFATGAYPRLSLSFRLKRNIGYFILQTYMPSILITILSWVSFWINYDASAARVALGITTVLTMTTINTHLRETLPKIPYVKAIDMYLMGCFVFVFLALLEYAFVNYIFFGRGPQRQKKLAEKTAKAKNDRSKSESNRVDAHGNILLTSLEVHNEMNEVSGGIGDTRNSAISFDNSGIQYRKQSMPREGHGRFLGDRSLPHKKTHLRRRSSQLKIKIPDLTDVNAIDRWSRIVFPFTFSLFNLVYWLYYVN
Put plainly: Two-electrode voltage clamp of GABA-elicited currents in Xenopus oocytes. The format is cell-based. The note with it: low GABA; wild-type α1β3. As to the method: Receptor expression and electrophysiological recordings were conducted as described in detail previously ([Sugasawa et al., 2020]). In brief, α1β3 GABAA receptors were expressed in oocytes from the African clawed frog (X. laevis). The wild-type α1 and β3 subunits were of human origin (Genbank accession numbers NM_000806.5 and NM_000814.5, respectively). The α1 clone containing the Q-to-L mutation to the classic neurosteroid binding site ([Hosie et al., 2006]) was of rat origin. (The glutamine residue in ELIC-α1GABAAR is Q242, whereas the corresponding residue in rat α1 is Q241. For simplicity, the residue is referred to as Q242 for both rat and ELIC-α1GABAAR.) The oocytes were purchased as quarter ovaries from Xenopus1 (Dexter, MI, USA). Following digestion in 2% w/v (mg·ml^−1) collagenase A, the oocytes were injected with a total of 12 ng cRNA per oocyte in a 5:1 ratio (α1:β3) and incubated at 15°C for 2–3 days prior to electrophysiological recordings in ND96 (96-mM NaCl, 2-mM KCl, 1.8-mM CaCl2, 1-mM MgCl2, 5-mM HEPES; pH 7.4) supplemented with 100 U·ml^−1 penicillin and 100 μg·ml^−1 streptomycin.
Electrophysiological recordings were conducted at ≈22°C using standard two-electrode voltage clamp. The voltage and current electrodes (G120F-4, OD = 1.20 mm, ID = 0.69 mm; Warner Instruments, Hamden, CT, USA) were filled with 3-M KCl and had resistances of 0.3–1 MΩ. The oocytes were clamped at −60 mV. The chamber (RC-1Z; Warner Instruments) was perfused with ND96 at 5–8 ml·min^−1. Solutions were gravity-applied. The current responses were amplified with an Axoclamp 900A (Molecular Devices, San Jose, CA, USA) or OC-725C amplifier (Warner Instruments), digitized with a Digidata 1200 series digitizer (Molecular Devices) and stored on PC hard drive using pClamp (Molecular Devices; RRID:SCR_011323). Current amplitudes were determined using Clampfit (Molecular Devices).
A standard experiment consisted of a several-minute long applications of GABA followed immediately by a co-application of GABA + modulator and a wash in GABA. For normalization purposes, each cell was exposed to the combination of saturating (1-mM) GABA + 50-μM propofol, assumed to fully activate all receptors in the cell ([Eaton et al., 2016]).
A general note: Two-electrode voltage clamp is typically applied to oocytes expressing channels or transporters.

Chain of ELIC-α1GABAAR (P14867 other isoform, or with tags, fused parts or gaps): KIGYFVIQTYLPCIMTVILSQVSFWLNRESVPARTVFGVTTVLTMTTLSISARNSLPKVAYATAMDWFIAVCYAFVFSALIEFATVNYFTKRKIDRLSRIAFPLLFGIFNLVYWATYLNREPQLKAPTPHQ
Chain of ELIC-α1GABAAR (P0C7B7 1-198, further chain): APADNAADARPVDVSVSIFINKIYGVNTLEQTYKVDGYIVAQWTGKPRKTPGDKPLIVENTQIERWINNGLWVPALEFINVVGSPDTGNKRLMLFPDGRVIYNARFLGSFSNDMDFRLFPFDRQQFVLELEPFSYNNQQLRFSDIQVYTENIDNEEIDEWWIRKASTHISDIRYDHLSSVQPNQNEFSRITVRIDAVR

Regarding `CC(=O)[C@H]1CC[C@H]2[C@@H]3CC[C@H]4C[C@@H](O)CC[C@]4(C)[C@H]3CC[C@]12C` [Epi-AlloP, epi-allopregnanolone], the “prevention of KK200 photolabelling of TM3 (Y309)” value on ELIC-α1GABAAR is “not significantly different than control; also recorded: did not”. Moreover, on α1β3 GABAA receptors, the “potentiation of GABA-elicited currents” value is given as “do not”.

These data come from PMC11585924, “Direct measurements of neurosteroid binding to specific sites on GABAA receptors” (British journal of pharmacology, 2024).
